Assay type in all cases: in vivo
Assay [1] has as its system common cocklebur (Xanthium strumarium L.). Nature of the assay: post-emergence herbicidal activity, cocklebur. As to conditions: 1 Kg/Ha, about fourteen days, read-out: post-emergence herbicidal activity (% control) XANPE. Put shortly:
(§1)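 Percent control (0–100) was rated about fourteen days after spraying of emerged, germinated plants in flats with compound dissolved in water/acetone at 1 Kg/Ha.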

For assay [2], the system named is field corn (Zea mays var. Pioneer 3732). Nature of the assay: post-emergence herbicidal activity, corn. The settings on record: 1 Kg/Ha, about fourteen days, read-out: post-emergence herbicidal activity (% control) CRN. Put shortly: as §1
Assay [3] deals with common cocklebur (Xanthium strumarium L.). Nature of the assay: pre-emergence herbicidal activity, cocklebur. The settings on record: 1 kg/Ha, about fourteen days, read-out: pre-emergence herbicidal activity (% control) XANPE. Put shortly:
(§2)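 Seeds sown in soil flats and sprayed pre-emergence with a water/acetone solution of test compound at 1 kg/Ha; untreated controls kept alongside. Phytotoxicity scored after about fourteen days as percent control, 0 being no effect and 100 complete control.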

The test system of assay [4] is common chickweed (Stellaria media). Nature of the assay: pre-emergence herbicidal activity, chickweed. The settings on record: 1 kg/Ha, about fourteen days, read-out: pre-emergence herbicidal activity (% control) STEME. In a few lines: as §2
The test system of assay [5] is green foxtail (Setaria viridis). Nature of the assay: post-emergence herbicidal activity, green foxtail. As to conditions: 1 Kg/Ha, about fourteen days, read-out: post-emergence herbicidal activity (% control) SETVI. Put shortly:
as §1

For assay [6], the system named is velvetleaf (Abutilon theophrasti). Nature of the assay: post-emergence herbicidal activity, velvetleaf. The settings on record: 1 Kg/Ha, about fourteen days, read-out: post-emergence herbicidal activity (% control) ABUTH. Put shortly: as §1
Assay [7] concerns green foxtail (Setaria viridis). Nature of the assay: pre-emergence herbicidal activity, green foxtail. The settings on record: 1 kg/Ha, about fourteen days, read-out: pre-emergence herbicidal activity (% control) SETVI. In a few lines: as §2
The test system of assay [8] is field corn (Zea mays var. Pioneer 3732). Nature of the assay: pre-emergence herbicidal activity, corn. The settings on record: 1 kg/Ha, about fourteen days, read-out: pre-emergence herbicidal activity (% control) CRN. Put shortly: as §2
Assay [9] concerns Johnsongrass (Sorghum halepense). Nature of the assay: post-emergence herbicidal activity, johnsongrass. As to conditions: 1 Kg/Ha, about fourteen days, read-out: post-emergence herbicidal activity (% control) SORHA. In a few lines:
as §1

For assay [10] the test system is unchanged. Nature of the assay: pre-emergence herbicidal activity, johnsongrass. As to conditions: 1 kg/Ha, about fourteen days, read-out: pre-emergence herbicidal activity (% control) SORHA. As to the method:
(§3) This example sets forth the methods of herbicidal testing conducted on the specific compounds set forth below. Specifically, the compounds referenced below were tested for pre- and post-emergence herbicidal activity using a variety of crops and weeds. The test plants include, but are not limited to, soybean (Glycine max -- var. Winchester), field corn (Zea mays var. Pioneer 3732), wheat (Triticum aestivum var. Lew), morningglory (Ipomea lacunosa or Ipomea hederacea), velvetleaf (Abutilon theophrasti), green foxtail (Setaria viridis), Johnsongrass (Sorghum halepense), blackgrass (Aloepecurus myosuroides), common chickweed (Stellaria media), and common cocklebur (Xanthium strumarium L.).
(§4) In the post-emergence test, seeds of the plant species named above were planted in flats containing the appropriate soil mixture where they were maintained to allow the seeds to germinate. When the plants in these flats reached the proper stage of growth, flats for the pre-emergence tests were planted in a like manner. The flats containing the post-emergence and pre-emergence test plant species were then sprayed with an appropriately concentrated water/acetone solution of test compound. Once treated the flats were maintained, along with untreated controls, for about fourteen days. All treated plants were then examined for phytotoxicity, which was expressed as percent control where 0 is no effect and 100 is complete control. Effective rates of application for the compounds of the present invention range from 0.001 to 3 kg/ha, more likely from […] to 1 Kg/ha.
(§5) Herbicidal activity data at selected application rates are in Tables 4 and 5. The test compounds are identified by numbers correspond to those in Table 1.
Rate of application of test compound is 1 kg/Ha
(§6) SOY is soybean, WHT is wheat, CRN is corn, ABUTH is velvetleaf, IPOSS is
morningglory, STEME is chickweed, XANPE is cocklebur, ALOMY is blackgrass, […]

Assay [11] has as its system velvetleaf (Abutilon theophrasti). Nature of the assay: pre-emergence herbicidal activity, velvetleaf. The settings on record: 1 kg/Ha, about fourteen days, read-out: pre-emergence herbicidal activity (% control) ABUTH. In a few lines:
as §2

Assay [12] has as its system morningglory (Ipomea lacunosa or Ipomea hederacea). Nature of the assay: pre-emergence herbicidal activity, morningglory. As to conditions: Ipomoea, 1 kg/Ha, about fourteen days, read-out: pre-emergence herbicidal activity (% control) IPOSS. In a few lines:
as §2

Assay [13] concerns soybean (Glycine max -- var. Winchester). Nature of the assay: pre-emergence herbicidal activity, soybean. As to conditions: 1 kg/Ha, about fourteen days, read-out: pre-emergence herbicidal activity (% control) SOY. In a few lines: as §2
Assay [14] relates to common chickweed (Stellaria media). Nature of the assay: post-emergence herbicidal activity, chickweed. The settings on record: 1 Kg/Ha, about fourteen days, read-out: post-emergence herbicidal activity (% control) STEME. As to the method: as §3, §4, §5, §6
(§7) morningglory, STEME is chickweed, XANPE is cocklebur, ALOMY is blackgrass,
(§8) Rate of application of test compound is 1 Kg/Ha. The definitions as shown under Table 4 apply to Table 5.

Assay [15] deals with wheat (Triticum aestivum var. Lew). Nature of the assay: post-emergence herbicidal activity, wheat. As to conditions: 1 Kg/Ha, about fourteen days, read-out: post-emergence herbicidal activity (% control) WHT. In a few lines:
as §1

Assay [16] shares this test system. Nature of the assay: pre-emergence herbicidal activity, wheat. As to conditions: 1 kg/Ha, about fourteen days, read-out: pre-emergence herbicidal activity (% control) WHT. Put shortly:
as §2

Assay [17] deals with soybean (Glycine max -- var. Winchester). Nature of the assay: post-emergence herbicidal activity, soybean. As to conditions: 1 Kg/Ha, about fourteen days, read-out: post-emergence herbicidal activity (% control) SOY. Put shortly:
as §1

For assay [18], the system named is morningglory (Ipomea lacunosa or Ipomea hederacea). Nature of the assay: post-emergence herbicidal activity, morningglory. As to conditions: Ipomoea, 1 Kg/Ha, about fourteen days, read-out: post-emergence herbicidal activity (% control) IPOSS. In a few lines:
as §1

Assay [19] concerns blackgrass (Aloepecurus myosuroides). Nature of the assay: pre-emergence herbicidal activity, blackgrass. As to conditions: Alopecurus myosuroides, 1 kg/Ha, about fourteen days, read-out: pre-emergence herbicidal activity (% control) ALOMY. In a few lines: as §2
Assay [20] shares this test system. Nature of the assay: post-emergence herbicidal activity, blackgrass. The settings on record: Alopecurus myosuroides, 1 Kg/Ha, about fourteen days, read-out: post-emergence herbicidal activity (% control) ALOMY. As to the method: as §3, §4, §5, §6, §7, §8

With `CON1Cc2c(-n3c(=O)cc(C(F)(F)F)n(C)c3=O)ccc(Cl)c2C1=O` [Compound 21], the activity at 1000 g/ha in assay [1] is 95%; in assay [2] it was 80%; in assay [3], 100%; in assay [4] it was 100%; in assay [5], 100%; in [6] it was 100%. In addition, the activity at 1000 g/ha in assay [7], in assay [8], in assay [9], in assay [10], in [11] and in [12] was 100% in each case. Besides, the activity at 1000 g/ha was found to be 100% in [13]; 100% in assay [14]; 80% in assay [15]; 100% in assay [16]; 100% in assay [17]; 100% in [18].
For `CCN1Cc2c(-n3c(=O)cc(C(F)(F)F)n(C)c3=O)ccc(Cl)c2C1=O` [Compound 22], the activity at 1000 g/ha in assay [1], in assay [2], in assay [3], in assay [4], in assay [5] and in [6] was 100% in each case. The activity at 1000 g/ha in [7], in assay [8], in assay [9], in assay [10], in assay [11] and in assay [12] was 100% each time. Further, the activity at 1000 g/ha in [13], in assay [14], in [15], in assay [16], in assay [17] and in [18] was 100% in each case.
On to `CCn1c(C(F)(F)F)cc(=O)n(-c2ccc(Cl)c3c2CN(C(C)C)C3=O)c1=O` [Compound 71], for which the activity at 1000 g/ha in assay [19] came out at 90%; in assay [1], 70%; in assay [2] it was 90%; in assay [3] it was 100%; in assay [4], 100%; in [5], 100%. In addition, the activity at 1000 g/ha in [6] worked out at 95%; in [7], 100%; in [8], 100%; in assay [11] it was 100%; in assay [12], 100%; in assay [13] it was 100%. The activity at 1000 g/ha was determined as 100% in assay [20]; 100% in [14]; 80% in assay [15]; 100% in assay [16]; 90% in assay [17]; 95% in assay [18].
Consider `CCCn1c(C(F)(F)F)cc(=O)n(-c2ccc(Cl)c3c2CN(C(C)C)C3=O)c1=O` [Compound 72], for which the activity at 1000 g/ha in assay [19] was found to be 30%; in assay [1], 10%; in [2] it was 60%; in assay [3], 40%; in [4], 65%; in assay [5], 50%. Moreover, the activity at 1000 g/ha turned out to be 20% in assay [6]; 75% in [7]; 70% in assay [8]; 40% in assay [11]; 25% in [12]; 20% in assay [13]. Further, the activity at 1000 g/ha in [20] was 10%; in assay [14], 10%; in assay [15], 0%; in assay [16], 30%; in [17], 60%; in assay [18] it was 10%.
In the case of `CC(C)N1Cc2c(-n3c(=O)cc(C(F)(F)F)n(Cc4ccccc4)c3=O)ccc(Cl)c2C1=O` [Compound 73], the activity at 1000 g/ha in assay [19] came to 70%; in [1] it was 75%; in assay [2] it was 75%; in [3], 70%; in [4], 100%; in assay [5] it was 60%. In addition, the activity at 1000 g/ha in assay [6] amounted to 100%; in assay [7], 100%; in assay [8], 90%; in [11], 100%; in assay [12], 40%; in assay [13], 95%. Besides, the activity at 1000 g/ha in assay [20] came out at 70%; in assay [14], 100%; in [15], 50%; in assay [16] it was 69%; in assay [17], 90%; in assay [18], 80%.
`CCOC(=O)Cn1c(C(F)(F)F)cc(=O)n(-c2ccc(Cl)c3c2CN(C(C)C)C3=O)c1=O` [Compound 74]: the activity at 1000 g/ha in [19] was 10%; in assay [1], 20%; in assay [2] it was 30%; in assay [3] it was 30%; in [4], 10%; in [5], 10%. For the same compound, the activity at 1000 g/ha in assay [6] is 20%; in assay [7], 5%; in assay [8] it was 0%; in assay [11], 5%; in [12], 20%; in assay [13], 5%. Besides, the activity at 1000 g/ha in [20] was found to be 30%; in assay [14], 20%; in assay [15], 10%; in assay [16], 0%; in assay [17], 40%; in [18], 30%.

Values taken from patent publication US6277847A, “Herbicidal isoindolinonyl-and 3,4-dihydroisoquinolonyl-substituted heterocycles” (FMC Corporation, priority 2000, dated 2001).
